Our source for the Ki values is US20240246966A1, “NEW PYRAZOLO[1,5-a] PYRIMIDINE DERIVATIVES AS SIGMA LIGANDS” (ACONDICIONAMIENTO TARRASENSE, priority 2021, published 2024).

Test [1] concerns the target T1, Human σ1 Receptor (Homo sapiens, UniProt Q99720).
T1 construct: expressed in transfected cells; host or cells: HEK-293
Nature of the test: Human σ1 receptor radioligand assay ([3H](+)-pentazocine, transfected HEK-293 membranes). The following applies: human σ1, [3H](+)-pentazocine 5 nM, binding expressed as Ki, read-out: Binding σ-1. The method, then: Human σ1 Receptor Radioligand Assay
Transfected HEK-293 membranes (7 μg) were incubated with 5 nM of [^3H](+)-pentazocine in assay buffer containing Tris-HCl 50 mM at pH 8. NBS (non-specific binding) was measured by adding 10 μM haloperidol. The binding of the test compound was measured at either one concentration (% inhibition at 1 or 10 μM) or five different concentrations to determine affinity values (Ki). Plates were incubated at 37° C. for 120 minutes. After the incubation period, the reaction mix was then transferred to MultiScreen HTS, FC plates (Millipore), filtered and plates were washed 3 times with ice-cold 10 mM Tris-HCL (pH 7.4). Filters were dried and counted at approximately 40% efficiency in a MicroBeta scintillation counter (Perkin-Elmer) using EcoScint liquid scintillation cocktail.

Test [2] concerns the target T2, Human σ2/TMEM97 receptor (Homo sapiens, UniProt Q5BJF2).
T2 construct: expressed in transfected cells; host or cells: HEK-293
Briefly: Binding assay to human σ2/TMEM97 receptor ([3H]-DTG, transfected HEK-293 membranes). The following applies: human σ2/TMEM97, [3H]-DTG 10 nM, binding expressed as Ki, read-out: Binding σ-2. The protocol: Binding Assay to Human ρ2/TMEM97 Receptor
Transfected HEK-293 membranes (15 μg) were incubated with 10 nM [^3H]-1,3-Di-o-tolylguanidine ( DTG) in assay buffer containing Tris-HCl 50 mM at pH 8.0. NSB (non-specific binding) was measured by adding 10 μM haloperidol. The binding of the test compound was measured at either one concentration (% inhibition at 1 or 10 μM) or five different concentrations to determine affinity values (Ki). Plates were incubated at 25° C. for 120 minutes. After the incubation period, the reaction mix was transferred to MultiScreen HTS, FC plates (Millipore), filtered and washed 3 times with ice-cold 10 mM Tris-HCL (pH 8.0). Filters were dried and counted at approximately 40% efficiency in a MicroBeta scintillation counter (Perkin-Elmer) using EcoScint liquid scintillation cocktail.

The structures appear in SMILES notation. Where only a bound is given, the exact number is not on record here.

T1 sequence (Q99720 whole entry): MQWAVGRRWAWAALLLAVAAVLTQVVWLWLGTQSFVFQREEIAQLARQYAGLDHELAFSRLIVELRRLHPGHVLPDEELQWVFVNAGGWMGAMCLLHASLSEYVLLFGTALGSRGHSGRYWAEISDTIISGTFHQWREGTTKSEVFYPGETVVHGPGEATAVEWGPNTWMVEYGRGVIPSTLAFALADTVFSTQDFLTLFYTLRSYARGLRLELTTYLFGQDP
T2 sequence (Q5BJF2 whole entry): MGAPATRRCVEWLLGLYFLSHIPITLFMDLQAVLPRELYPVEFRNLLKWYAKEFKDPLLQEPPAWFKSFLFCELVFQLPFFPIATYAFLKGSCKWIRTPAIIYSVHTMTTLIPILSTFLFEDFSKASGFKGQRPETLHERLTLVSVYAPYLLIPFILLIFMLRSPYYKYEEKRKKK

Take `FC(F)(F)c1cc(-c2cnn3cc(CN4CC5(CCOCC5)C4)cnc23)ccn1` [Example 33, 2-((3-(2-(Trifluoromethyl)pyridin-4-yl)pyrazolo[1,5-a]pyrimidin-6-yl)methyl)-7-oxa-2-azaspiro[3.5]nonane]: the Ki is below 100 nM in test [1] and above 1000 nM in test [2].

As for `COCC1CCN(Cc2cnc3c(-c4ccnc(C)c4)cnn3c2)CC1` [Example 25, 6-((4-(Methoxymethyl)piperidin-1-yl)methyl)-3-(2-methylpyridin-4-yl)pyrazolo[1,5-a]pyrimidine], the Ki was below 100 nM in test [1] and above 1000 nM in test [2].

On to `COC1CCN(Cc2cnc3c(-c4ccc(C(F)(F)F)nc4)cnn3c2)CC1` [Example 21, 6-((4-Methoxypiperidin-1-yl)methyl)-3-(6-(trifluoromethyl)pyridin-3-yl)pyrazolo[1,5-a]pyrimidine], for which the results for the Ki in test [1] and in test [2] were below 100 nM and above 1000 nM, respectively.

`N#Cc1ncccc1-n1ccc2cc(CN3CCC4(CCOCC4)CC3)cnc21` [Example 53, 3-(5-((3-Oxa-9-azaspiro[5.5]undecan-9-yl)methyl)-1H-pyrrolo[2,3-b]pyridin-1-yl) picolinonitrile]: the Ki in test [1] was below 100 nM; in test [2] it was 500 to 1000 nM.

As for `CCN(CC)Cc1cnc2c(-c3ccnc(C(F)(F)F)c3)cnn2c1` [Example 12, N-Ethyl-N-((3-(2-(trifluoromethyl)pyridin-4-yl)pyrazolo[1,5-a]pyrimidin-6-yl)methyl)ethanamine], the Ki in test [1] was below 100 nM; in test [2] it was above 1000 nM.

Take `FC(F)(F)c1ccc(-n2ccc3cc(CN4CCC5(CCOCC5)CC4)cnc32)cn1` [Example 48, 9-((1-(6-(Trifluoromethyl)pyridin-3-yl)-1H-pyrrolo[2,3-b]pyridin-5-yl)methyl)-3-oxa-9-azaspiro[5.5]undecane]: the Ki in test [1] is below 100 nM; in test [2] it was 100 to 500 nM.

Turning to `OCC1(CO)CCN(Cc2cnc3c(-c4ccnc(C(F)(F)F)c4)cnn3c2)CC1` [Example 59, (1-((3-(2-(Trifluoromethyl)pyridin-4-yl)pyrazolo[1,5-a]pyrimidin-6-yl)methyl)piperidine-4,4-diyl)dimethanol], the Ki in test [1] was below 100 nM; in test [2], above 1000 nM.

In the case of `Cc1nn2cc(CN3CCC4(CC3)COC4)cnc2c1-c1ccnc(C(F)(F)F)c1` [Example 20, 7-((2-Methyl-3-(2-(trifluoromethyl)pyridin-4-yl)pyrazolo[1,5-a]pyrimidin-6-yl)methyl)-2-oxa-7-azaspiro[3.5]nonane], the Ki in test [1] was 100 to 500 nM; in test [2], 500 to 1000 nM.

Turning to `FC(F)(F)c1ncccc1-n1ccc2cc(CN3CCC4(CCOCC4)CC3)cnc21` [Example 45, 9-((1-(2-(Trifluoromethyl)pyridin-3-yl)-1H-pyrrolo[2,3-b]pyridin-5-yl)methyl)-3-oxa-9-azaspiro[5.5]undecane], the Ki is below 100 nM in test [1] and 100 to 500 nM in test [2].

`COc1ncccc1-c1cnn2cc(CN3CCCC3)cnc12` [Example 4, 3-(2-Methoxypyridin-3-yl)-6-(pyrrolidin-1-ylmethyl)pyrazolo[1,5-a]pyrimidine]: the values for the Ki in test [1] and in test [2] were below 100 nM and above 1000 nM, respectively.

Regarding `FC(F)(F)c1cc(-n2ccc3cc(CN4CCC5(CCOCC5)CC4)cnc32)ccn1` [Example 46, 9-((1-(2-(Trifluoromethyl)pyridin-4-yl)-1H-pyrrolo[2,3-b]pyridin-5-yl)methyl)-3-oxa-9-azaspiro[5.5]undecane], the Ki in test [1] and in test [2] was below 100 nM each time.

Regarding `FC(F)(F)c1cc(-n2ccc3cc(CN4CC5(CCOCC5)C4)cnc32)ccn1` [Example 47, 2-((1-(2-(Trifluoromethyl)53yridine-4-yl)-1H-pyrrolo[2,3-b]53yridine-5-yl)methyl)-7-oxa-2-azaspiro[3.5]nonane], the Ki in test [1] and in test [2] was below 100 nM throughout.

As to `FC(F)(F)c1cc(-c2cnn3cc(CN4CCC5(CCO5)CC4)cnc23)ccn1` [Example 7, 7-((3-(2-(Trifluoromethyl)pyridin-4-yl)pyrazolo[1,5-a]pyrimidin-6-yl)methyl)-1-oxa-7-azaspiro[3.5]nonane], the Ki was 100 to 500 nM in test [1] and above 1000 nM in test [2].

On to `Cc1cc(-c2cnn3cc(CN4CC5(CCOCC5)C4)cnc23)ccn1` [Example 27, 2-((3-(2-Methylpyridin-4-yl)pyrazolo[1,5-a]pyrimidin-6-yl)methyl)-7-oxa-2-azaspiro[3.5]nonane], for which the Ki is below 100 nM in test [1] and above 1000 nM in test [2].

For the molecule `FC(F)(F)c1cc(-c2cnn3cc(CN4CCN(C5COC5)CC4)cnc23)ccn1` [Example 35, 6-((4-(Oxetan-3-yl)piperazin-1-yl)methyl)-3-(2-(trifluoromethyl)pyridin-4-yl)pyrazolo[1,5-a]pyrimidine], the Ki in test [1] is 500 to 1000 nM; in test [2] it was above 1000 nM.

Take `FC(F)(F)c1cccc(-c2cnn3cc(CN4CCC5(CC4)COC5)cnc23)n1` [Example 14, 7-((3-(6-(Trifluoromethyl)pyridin-2-yl)pyrazolo[1,5-a]pyrimidin-6-yl)methyl)-2-oxa-7-azaspiro[3.5]nonane]: the Ki in test [1] was below 100 nM; in test [2] it was 500 to 1000 nM.

As for `OCC1(CCl)CCN(Cc2cnc3c(-c4ccnc(C(F)(F)F)c4)cnn3c2)CC1` [Example 60, (4-(Chloromethyl)-1-((3-(2-(trifluoromethyl)pyridin-4-yl)pyrazolo[1,5-a]pyrimidin-6-yl)methyl)piperidin-4-yl)methanol], the Ki in test [1] was below 100 nM; in test [2] it was 100 to 500 nM.

Turning to `COC1CCN(Cc2cnc3c(-c4ccnc(C)c4)cnn3c2)CC1` [Example 23, 6-((4-Methoxypiperidin-1-yl)methyl)-3-(2-methylpyridin-4-yl)pyrazolo[1,5-a]pyrimidine], the Ki in test [1] was 100 to 500 nM; in test [2] it was above 1000 nM.

For `FC(F)(F)c1cc(-c2cnn3cc(CN4CCCOCC4)cnc23)ccn1` [Example 31, 4-((3-(2-(Trifluoromethyl)pyridin-4-yl)pyrazolo[1,5-a]pyrimidin-6-yl)methyl)-1,4-oxazepane], the Ki is below 100 nM in test [1] and 100 to 500 nM in test [2].

With `COC1CCN(Cc2cnc3c(ccn3-c3ccnc(C(F)(F)F)c3)c2)CC1` [Example 49, 5-((4-Methoxypiperidin-1-yl)methyl)-1-(2-(trifluoromethyl)pyridin-4-yl)-1H-pyrrolo[2,3-b]pyridine], the Ki in test [1] was below 100 nM; in test [2], 500 to 1000 nM.

On to `COCC1CCN(Cc2cnc3c(ccn3-c3ccnc(C(F)(F)F)c3)c2)CC1` [Example 39, 5-((4-(Methoxymethyl)piperidin-1-yl)methyl)-1-(2-(trifluoromethyl)pyridin-4-yl)-1H-pyrrolo[2,3-b]pyridine], for which the Ki was below 100 nM in test [1] and 100 to 500 nM in test [2].

With `c1ccc(-c2cnn3cc(CN4CCC5(CC4)COC5)cnc23)nc1` [Example 18, 7-((3-(Pyridin-2-yl)pyrazolo[1,5-a]pyrimidin-6-yl)methyl)-2-oxa-7-azaspiro[3.5]nonane], the Ki in test [1] is 500 to 1000 nM; in test [2], above 1000 nM.

On to `FC(F)(F)c1ncccc1-n1ccc2cc(CN3CCC4(CCOC4)CC3)cnc21` [Example 54, 8-((1-(2-(Trifluoromethyl)pyridin-3-yl)-1H-pyrrolo[2,3-b]pyridin-5-yl)methyl)-2-oxa-8-azaspiro[4.5]decane], for which the values for the Ki in test [1] and in test [2] were below 100 nM and 500 to 1000 nM, respectively.

For `FC(F)(F)c1cc(-c2cnn3cc(CN4CCC5(CCOCC5)CC4)cnc23)ccn1` [Example 32, 9-((3-(2-(Trifluoromethyl)pyridin-4-yl)pyrazolo[1,5-a]pyrimidin-6-yl)methyl)-3-oxa-9-azaspiro[5.5]undecane], the Ki is below 100 nM in test [1] and 100 to 500 nM in test [2].

On to `FC1(F)CCN(Cc2cnc3c(-c4ccnc(C(F)(F)F)c4)cnn3c2)CC1` [Example 11, 6-((4,4-Difluoropiperidin-1-yl)methyl)-3-(2-(trifluoromethyl)pyridin-4-yl)pyrazolo[1,5-a]pyrimidine], for which the results for the Ki in test [1] and in test [2] were 500 to 1000 nM and above 1000 nM, respectively.

As to `FC(F)(F)c1ccc(-c2cnn3cc(CN4CC5(CCOCC5)C4)cnc23)cn1` [Example 22, 2-((3-(6-(Trifluoromethyl)pyridin-3-yl)pyrazolo[1,5-a]pyrimidin-6-yl)methyl)-7-oxa-2-azaspiro[3.5]nonane], the Ki was below 100 nM in test [1] and above 1000 nM in test [2].

With `FC(F)(F)c1ccc(-n2ccc3cc(CN4CC5(CCOCC5)C4)cnc32)cn1` [Example 55, 2-((1-(6-(Trifluoromethyl)pyridin-3-yl)-1H-pyrrolo[2,3-b]pyridin-5-yl)methyl)-7-oxa-2-azaspiro[3.5]nonane], the Ki in test [1] was below 100 nM; in test [2] it was 100 to 500 nM.
